Source: patent US6441134B1, “Isolated Candida albicans oligopeptide transporter gene” (The University of Tennessee Research Corporation, dated 2002)
Starred links: 1 amine or outer side, 2 acyl side, 3 side chain; linkers in the order of their positions; H or OH if unused. Non-standard residues stand in square brackets, D forms with d. Residues, ends and D or L forms follow the SMILES beside them. No end group written: not given here. Eth = ethionine, CCSCC[C@H](N[*:1])C(=O)[*:2]; Ethionine = CCSCC[C@H](N[*:1])C(=O)[*:2]; hCys = N[C@@H](CCS)C(=O)O

T1: Candida albicans oligopeptide transporter Opt1p (protein product of OPT1) (Candida albicans)
T1 chain: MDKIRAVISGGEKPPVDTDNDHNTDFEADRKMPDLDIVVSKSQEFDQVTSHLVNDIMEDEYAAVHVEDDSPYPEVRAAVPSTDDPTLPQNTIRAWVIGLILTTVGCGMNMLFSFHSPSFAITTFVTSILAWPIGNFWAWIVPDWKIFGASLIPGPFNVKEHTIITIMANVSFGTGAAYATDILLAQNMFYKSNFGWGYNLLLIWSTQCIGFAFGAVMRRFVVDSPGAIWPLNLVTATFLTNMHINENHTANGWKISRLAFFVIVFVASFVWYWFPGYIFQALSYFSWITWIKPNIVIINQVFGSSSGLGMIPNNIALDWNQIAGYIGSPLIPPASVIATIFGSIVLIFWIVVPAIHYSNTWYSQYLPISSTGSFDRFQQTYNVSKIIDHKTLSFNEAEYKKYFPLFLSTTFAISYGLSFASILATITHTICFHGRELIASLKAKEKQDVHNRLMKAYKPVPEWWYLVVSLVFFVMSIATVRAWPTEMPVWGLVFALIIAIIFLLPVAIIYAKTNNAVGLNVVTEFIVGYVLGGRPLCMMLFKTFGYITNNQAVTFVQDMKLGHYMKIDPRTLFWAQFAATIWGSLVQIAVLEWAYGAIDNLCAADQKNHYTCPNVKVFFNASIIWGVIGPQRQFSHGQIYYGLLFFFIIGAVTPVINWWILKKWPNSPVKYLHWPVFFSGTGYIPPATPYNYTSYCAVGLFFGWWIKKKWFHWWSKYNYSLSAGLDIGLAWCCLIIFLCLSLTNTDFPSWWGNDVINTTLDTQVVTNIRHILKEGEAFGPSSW

B1: Lysyl-Leucyl-Glycine (peptide)
peptide: KLG
B2: Lysyl-Leucine (peptide)
peptide: KL

Assays:
[1] = tested on: S. cerevisiae PB1X-9B(pOPT1); type: cell-based, Saccharomyces cerevisiae; settings: 0.38 μmoles per 6 mm disk; for zone of growth inhibition / sensitivity: 0.1% proline as nitrogen source; for zone of growth inhibition: ammonium sulfate as nitrogen source, 24-48 hr
Experimental: (§1) S. cerevisiae PB1X-9B is sensitive to the toxic amino acid ethionine Eth) but is resistant to ethionine containing di-, tri-, tetra-, and pentapeptides. Disk sensitivity assays was utilized to determine if cells transformed with pOPT1 were sensitive to toxic peptides and whether this sensitivity was dependent upon nitrogen source.
(§2) Sensitivity to ethionine, a toxic methionine analog, and ethionine-containing peptides was determined by the method described by Island et al. (1987). Cells were grown overnight to exponential phase of growth in SC, washed, and resuspended at 5×10^6 cells /ml in sterile water. One ml of this cell suspension was added to 3 ml molten Noble agar (0.8% final concentration) and overlayed on 20 ml of the same medium used to prepare the inoculum. A disk (6 mm diameter, Difco) was placed on the plate and 0.38 μmoles of the compounds to be tested were applied to the disks. Zones of inhibition were measured after 24-48 hr incubation at 30 iC. Each test comprised at least three independent assays and the results represented in the Tables are means of the values obtained. Maximum variation between the zones of inhibition measured for each test were ^23 mm. A value of 7 mm for the diameter of zone of inhibition represents a minimal growth inhibition value as the disk diameter was 6 mm. Photodocumentation of sensitivity assays was done with a Umax Scanner and processed through Adobe Photoshop.

[2] = tested on: S. cerevisiae PB1X-9B(pRS202); experiment: Disk sensitivity assay to ethionine-containing peptides, PB1X-9B(pRS202); type: cell-based, Saccharomyces cerevisiae; settings: for zone of growth inhibition / sensitivity: 0.1% proline as nitrogen source, 0.38 μmoles per 6 mm disk; for zone of growth inhibition: medium containing ammonium sulfate
Experimental: as §1, §2

[3] = tested on: S. cerevisiae PB1X-9B(pOPT1); experiment: Growth assay, peptides as sole source of leucine, PB1X-9B(pOPT1); type: cell-based, Saccharomyces cerevisiae; settings: 100 μM peptide; for utilization of peptide as a sole source of leucine (growth): medium with 0.1% proline as nitrogen source
Experimental: (§3) To determine the size constraints of peptide utilization mediated by pOPT1, the ability of S. cerevisiae PB1X-9B (a mutant in the di-/tripeptide transporter) harboring either pRS202 (the parent vector) or pOPT1 (pRS202 containing the 3.8 kb insert with the OPT1 gene) to grow on KL, KLG, KLLG SEQ ID NO:6, and KLLLG SEQ ID NO:8 as a sole source of leucine was tested. Previously it has been shown that di-/tripeptide transport activity in C. albicans and S. cerevisiae is regulated by nitrogen; rich nitrogen sources such as ammnonium sulfate repress, while poor nitrogen sources such as proline derepress transport. Therefore simultaneous effect of nitrogen source on oligopeptide transport activity was determined by supplying either ammnonium sulfate or proline as the nitrogen source.
(§4) Peptide medium consisted of minimal medium supplemented with auxotrophic requirements minus the amino acid Seucine plus 100 μM of one of the following peptidest Lysyl-Leucine (KL), Lysyl-Leucyl-Glycine (KLG), Lysyl-Leucyl-Leucyl-Glycine (KLLG) SEQ ID NO:6, Lysyl-Leucyl-Glycyl-Leucine (KLGL) SEQ ID NO:7, or Lysyl-Leucyl-Leucyl-Leucyl-Glycine (KLLLG) SEQ ID NO:8. Abbreviations for toxic peptides and amino acids used herein are as follows: Ethionine (Eth), Alanyl-Ethionine (AEth), Leucyl-Ethionine (LEth), Lysysl-Leucyl-Ethionine (KLEth), Lysyl-Leucyl-Leucyl-Ethionine (KLLEth) SEQ ID NO:12, Lysysl-Leucyl-Alanyl-Ethionine (KLAEth) SEQ ID NO:14, and Lysyl-Leucyl-Leucyl-Leucyl-Ethionine (KLLLEth) SEQ ID NO:13. All amino acids were in the L configuration.
(§5) Growth assays to determine the phenotype of the cells were done as described by Island et al. (1991). Briefly, 3 μl of culture from a suspension of 5×10^6 cells/ml were spotted to the surface of the medium and plates were incubated at 30 iC for 4-7 days.

[4] = tested on: oligopeptide transporter (OPT1) expressed in S. cerevisiae PB1X-9B; experiment: Peptide transport competition experiment, KLG-[3H]L uptake by PB1X-9B(pOPT1); type: cell-based, Candida albicans; settings: for uptake rate of KLG-[3H]L in the presence of the competitor: SC-Ura with ammonium sulfate; for competition with the uptake of KLG-[3H]L: 10-fold molar excess of competitor, FIG. 7
Experimental: To more rigorously determine the size constraints of the oligopeptide transporter, the accumulation of KLG-[^3H]L SEQ ID NO:7 was measured in the presence of 10-fold molar excess of the competitors L, KL, KLG, KLLG SEQ ID NO:6, and KLLLG SEQ ID NO:8. […] Uptake rates were calculated from a bestfit of the slope for each set of data. The uptake rate of KLG-[^3H]L SEQ ID NO:7 in the presence of no competitor, L, or KL was […] of dry weight, respectively. When KLG was used as a competitor the uptake rate was 0.12 nmoles/min/mg of dry weight which was approximately 50% of the no-competitor rate. The uptake rate approximated zero when KLLG SEQ ID NO:6 and KLLLG SEQ ID NO:8 were used as competitors.
Uptake of KLG-[^3H]L SEQ ID NO:7 was determined using a protocol for uptake of dipeptides as described by Basrai et al. (1995) with a few modifications. S. cerevisiae cultures were grown overnight to exponential phase in SC-Ura medium. Cells were harvested by centrifugation, and resuspended in 2% glucose at a cell density of 2×10^8 cells/ml. Two hundred and fifty microliters of cell suspension were added to an equal volume of an uptake assay reaction mixture and incubated at 30iC. The final concentrations of the components in the uptake assay solution were: glucose (2%, w/v), 10 mM sodium citrate/potassium phosphate buffer (pH 5.0), and KLG-[^3H]L SEQ ID NO:7 (150 μM; 8.5 mCi/mmol). Competition experiments were done in the presence of either 1.5 mM L, KL, KLG, KLLG SEQ ID NO:6, or KLLLG SEQ ID NO:8. At various time points, 90 μl portions were removed and filtered through a membrane. The yeast cells retained on the filter were washed twice with ice-cold distilled water, once with room temperature distilled water, and the residual radioactivity was measured by liquid scintillation. There was no peptide adsorption to the cell surface or sticking to filters since at 0i C the counts were at background level. The uptake results, calculated on the basis of 50% counting efficiency (determined using L-[^3H]lysine as a standard, and the specific activity of the peptide), were expressed as nmol of peptide uptake per minute per mg cell dry weight.

[5] = tested on: S. cerevisiae PB1X-9B(pRS202); experiment: Growth assay, peptides as sole source of leucine, PB1X-9B(pRS202); type: cell-based, Saccharomyces cerevisiae; settings: medium with 0.1% proline as nitrogen source; 100 μM peptide
Experimental: as §3, §4, §5

[6] = tested on: S. cerevisiae PB1X-9B(pRS202); experiment: Peptide transport assay, accumulation of KLG-[3H]L, PB1X-9B(pRS202); type: cell-based, Saccharomyces cerevisiae; settings: cells grown in SC-Ura with 0.1% proline
Experimental: To determine if S. cerevisiae transformants harboring pOPT1 could accumulate a radiolabeled tetrapeptide, uptake assays were performed with the radiolabeled substrate KLG-[^3H]L SEQ ID NO:7 with cells grown to log phase in SC-Ura with either ammonium sulfate or 0.1% proline as a nitrogen source. […] This higher initial rate can be explained by overexpression due to high copy number or alternatively by the lack of requisite regulatory elements which may be absent in the heterologous host.
Uptake of KLG-[^3H]L SEQ ID NO:7 was determined using a protocol for uptake of dipeptides as described by Basrai et al. (1995) with a few modifications. S. cerevisiae cultures were grown overnight to exponential phase in SC-Ura medium. Cells were harvested by centrifugation, and resuspended in 2% glucose at a cell density of 2×10^8 cells/ml. […] The yeast cells retained on the filter were washed twice with ice-cold distilled water, once with room temperature distilled water, and the residual radioactivity was measured by liquid scintillation. […] The uptake results, calculated on the basis of 50% counting efficiency (determined using L-[^3H]lysine as a standard, and the specific activity of the peptide), were expressed as nmol of peptide uptake per minute per mg cell dry weight.

[7] = molecular target: T1, Candida albicans oligopeptide …; experiment: cell-based or functional assay
[8] = 10-fold molar excess (1.5 mM) of competitor

Row | Molecule | zone of growth inhibition / sensitivity [1] | zone of growth inhibition / sensitivity [2] | uptake rate of KLG-[3H]L in the presence of the competitor [4, 8] | competition with the uptake of KLG-[3H]L [4] | also measured
1 | CCSCC[C@H](NC(=O)[C@H](C)N)C(=O)O [AEth, Alanyl-Ethionine] (H-Ala-[hCys](Et)-OH) | Neither strain exhibited sensitivity | Neither strain exhibited sensitivity |  |  | zone of growth inhibition [1]: no zone of growth inhibition
2 | CC(C)C[C@H](NC(=O)[C@@H](N)CCCCN)C(=O)O [KL, Lysyl-Leucine] (H-Lys-Leu-OH) |  |  | 0.26 nm/min/mg of dry weight | do not compete | utilization of peptide as a sole source of leucine (growth) [3]: No growth; utilization of peptide as a sole source of leucine (growth) [5]: No growth
3 | CC(C)C[C@H](NC(=O)[C@@H](N)CCCCN)C(=O)NCC(=O)O [KLG, Lysyl-Leucyl-Glycine] (H-Lys-Leu-Gly-OH) |  |  | 0.12 nmoles/min/mg of dry weight | decreased competition | utilization of peptide as a sole source of leucine (growth) [3]: No growth; uptake rate with competitor as percent of the no-competitor rate [4, 8]: approximately 50%; utilization of peptide as a sole source of leucine (growth) [5]: No growth
4 | CC(C)C[C@H](NC(=O)CNC(=O)[C@H](CC(C)C)NC(=O)[C@@H](N)CCCCN)C(=O)O [KLGL, Lysyl-Leucyl-Glycyl-Leucine] (H-KLGL-OH) |  |  |  |  | accumulation of tetrapeptide [6]: did accumulate
5 | CCSCC[C@H](NC(=O)[C@H](CC(C)C)NC(=O)[C@H](CC(C)C)NC(=O)[C@@H](N)CCCCN)C(=O)O [KLLEth, Lysyl-Leucyl-Leucyl-Ethionine] (H-KLL[hCys](Et)-OH) | zone of complete growth inhibition | not for PB1X-9B(pRS202) |  |  | zone of growth inhibition [2]: not PB1X-9B(pRS202)
6 | CC(C)C[C@H](NC(=O)[C@H](CC(C)C)NC(=O)[C@@H](N)CCCCN)C(=O)NCC(=O)O [KLLG, Lysyl-Leucyl-Leucyl-Glycine] (H-KLLG-OH) |  |  | zero | competition was seen | utilization of peptide as a sole source of leucine (growth) [3]: able to utilize; utilization of peptide as a source of leucine (growth) ([3]; medium with ammonium sulfate as nitrogen source): able to utilize; utilization of peptide as a sole source of leucine (growth) [5]: not able to utilize
7 | CC(C)C[C@H](N)C(=O)O [L, leucine] |  |  | 0.25 nm/min/mg of dry weight | do not compete | 
8 | CCSCC[C@H](NC(=O)[C@@H](N)CC(C)C)C(=O)O [LEth, Leucyl-Ethionine] (H-Leu-[hCys](Et)-OH) |  |  |  |  | zone of growth inhibition [1]: no zone of growth inhibition
9 | KLLAEth: ethionine-containing toxic pentapeptide, SEQ ID NO:15 (KLLA[Eth]) | zone of complete growth inhibition | not for PB1X-9B(pRS202) |  |  | zone of growth inhibition [2]: not PB1X-9B(pRS202)
10 | KLLLG [KLLLG, Lysyl-Leucyl-Leucyl-Leucyl-Glycine] |  |  | zero | competition was seen | utilization of peptide as a sole source of leucine (growth) [3]: No growth; utilization of peptide as a sole source of leucine (growth) [5]: No growth
11 | Lysysl-Leucyl-Alanyl-Ethionine (KLA[Ethionine]) [KLAEth] | zone of complete growth inhibition | not for PB1X-9B(pRS202) |  |  | zone of growth inhibition [2]: not PB1X-9B(pRS202)
12 | Lysysl-Leucyl-Ethionine [KLEth] | Neither strain exhibited sensitivity | Neither strain exhibited sensitivity |  |  | zone of growth inhibition [1]: no zone of growth inhibition
13 | B1 |  |  |  |  | uptake rate of KLG-[3H]L in the presence of a 10-fold molar excess of the competitor [7]: 0.12 nmoles/min/mg of dry weight
14 | B2 |  |  |  |  | uptake rate of KLG-[3H]L in the presence of a 10-fold molar excess of the competitor [7]: 0.26 nm/min/mg of dry weight
